The record followed here is patent US9085576B2 (AMGEN INC., priority 2013, dated 2015).

Counter-ions that a name gives are not always drawn.

In experiment [1] the target is Cathepsin D (Cat D) (Homo sapiens (Human), UniProt P07339). Briefly: In vitro enzymatic Cathepsin D (Cat D) FRET assay. Type of experiment: biochemical. To be noted: read-out: CatD IC50.
Protocol: In Vitro Enzymatic Cathepsin D (Cat D) FRET (Fluorescence Resonance Energy Transfer) Assay
Recombinant Cat D was expressed in CHO cells. The assay buffer for CathepsinD is 0.05 M citrate pH 3.5, 10% DMSO final, 5 mM CHAPS. […] The assays are effectively started by the addition of different FRET substrates (20 nM for Cat D) and the combination is incubated for one hour. The FRET assay is terminated with by addition of Tris buffer, which raises the pH to neutrality, and the fluorescence is determined. […] Proteolytic cleavage of the FRET substrate releases quenching of fluorescence (Cat D excitation 500 nm and emission 580 nm).
Experiment [2] has as its target BACE (Homo sapiens (Human), UniProt P56817). Briefly: In vitro BACE cell-based assay (Aβ40 in conditioned medium, sandwich ELISA). (An ELISA detects its analyte on a solid surface through an enzyme-linked reagent.)
The target of experiment [3] is Beta Secretase enzyme (BACE) (Homo sapiens (Human), UniProt P56817). The experiment is described as follows: In vitro enzymatic BACE FRET assay. To be noted: read-out: BACE1 Enzyme assay IC50. Format: biochemical.
Sequence of Beta Secretase enzyme (BACE) (P56817 46-501): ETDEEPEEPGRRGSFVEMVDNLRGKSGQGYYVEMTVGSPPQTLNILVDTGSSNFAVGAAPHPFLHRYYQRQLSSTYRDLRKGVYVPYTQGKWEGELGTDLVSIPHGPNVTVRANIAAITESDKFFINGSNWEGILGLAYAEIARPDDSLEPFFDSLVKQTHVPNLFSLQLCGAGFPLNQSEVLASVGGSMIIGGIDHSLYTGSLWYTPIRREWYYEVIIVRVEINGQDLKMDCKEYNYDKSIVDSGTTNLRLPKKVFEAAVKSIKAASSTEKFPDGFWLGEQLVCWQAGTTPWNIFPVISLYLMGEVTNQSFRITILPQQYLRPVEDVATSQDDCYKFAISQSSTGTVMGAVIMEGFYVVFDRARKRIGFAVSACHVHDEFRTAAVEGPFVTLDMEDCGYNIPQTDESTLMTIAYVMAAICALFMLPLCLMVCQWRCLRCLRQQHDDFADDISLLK

Sequence of BACE (P56817 46-501, species assumed): as the sequence (P56817 46-501) above
Sequence of Cathepsin D (Cat D) (P07339 65-412, species assumed): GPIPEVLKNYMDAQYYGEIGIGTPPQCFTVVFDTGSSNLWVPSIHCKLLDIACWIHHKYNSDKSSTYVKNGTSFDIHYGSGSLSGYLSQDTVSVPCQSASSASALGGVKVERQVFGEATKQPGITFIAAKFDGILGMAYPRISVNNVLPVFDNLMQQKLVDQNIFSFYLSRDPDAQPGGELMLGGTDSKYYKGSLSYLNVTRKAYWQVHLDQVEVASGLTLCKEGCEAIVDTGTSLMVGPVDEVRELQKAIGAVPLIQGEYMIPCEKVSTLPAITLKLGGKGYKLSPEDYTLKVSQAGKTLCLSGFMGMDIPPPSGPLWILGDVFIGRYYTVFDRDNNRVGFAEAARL

What is called IC50 is the concentration needed to halve the response being measured. For the compound `C[C@H](F)c1nc(C(=O)Nc2ccc(F)c([C@@]3(C(F)F)N=C(N)O[C@@H]4C[C@@H]43)c2)co1` (mixture of isomers) [Example 175, N-(3-((1R,5S,6R)-3-amino-5-(difluoromethyl)-2-oxa-4-azabicyclo[4.1.0]hept-3-en-5-yl)-4-fluorophenyl)-2-(1-fluoroethyl)oxazole-4-carboxamide 2,2,2-trifluoroacetate], the IC50 stood at 1340 µM in experiment [1], 2.48 µM in experiment [2] and 2.88 µM in experiment [3].

Take `NC1=N[C@@](c2cc(NC(=O)[C@H]3CCCO3)ccc2F)(C(F)F)[C@H]2C[C@H]2O1` (mixture of isomers) [Example 244, (S,R)-N-(3-((1R,5S,6R)-3-amino-5-(difluoromethyl)-2-oxa-4-azabicyclo[4.1.0]hept-3-en-5-yl)-4-fluorophenyl) tetrahydrofuran-2-carboxamide]: the half-maximal inhibitory concentration (IC50) in experiment [1] is 319 µM; in experiment [2], 1.98 µM; in experiment [3] it was 5.37 µM.

With `C[C@H](C(=O)Nc1ccc(F)c([C@@]2(C(F)F)N=C(N)O[C@@H]3C[C@@H]32)c1)c1ccc(Cl)cc1` (mixture of isomers) [Example 252, N-(3-((1R,5S,6R)-3-amino-5-(difluoromethyl)-2-oxa-4-azabicyclo[4.1.0]hept-3-en-5-yl)-4-fluorophenyl)-2-(4-chlorophenyl) propanamide], the results for the IC50 in experiment [1], in experiment [2] and in experiment [3] were 270 µM, above 15.6 µM and above 40 µM, respectively.

As to `NC1=N[C@@](c2cc(NC(=O)[C@@H]3CCOC3)ccc2F)(C(F)F)[C@H]2C[C@H]2O1` (mixture of isomers) [Example 253, (R,S)-N-(3-((1R,5S,6R)-3-amino-5-(difluoromethyl)-2-oxa-4-azabicyclo[4.1.0]hept-3-en-5-yl)-4-fluorophenyl) tetrahydrofuran-3-carboxamide], the IC50 in experiment [1] was 188 µM; in experiment [2], above 15.6 µM; in experiment [3], 34.3 µM.

Turning to `CO[C@H](C)C(=O)Nc1ccc(F)c([C@@]2(C(F)F)N=C(N)O[C@@H]3C[C@@H]32)c1` (mixture of isomers) [Example 257, (R,S)-N-(3-((1R,5S,6R)-3-amino-5-(difluoromethyl)-2-oxa-4-azabicyclo[4.1.0]hept-3-en-5-yl)-4-fluorophenyl)-2-methoxypropanamide], the concentration for half-maximal inhibition (IC50) in experiment [1] was 377 µM; in experiment [2], 2.54 µM; in experiment [3], 1.84 µM.

As to `N#Cc1cnc2c(c1)CC[C@@H]2Nc1ccc(F)c([C@@]2(C(F)F)N=C(N)O[C@@H]3C[C@@H]32)c1` (single isomer, unassigned) [Example 402], the IC50 was 0.318 µM in experiment [2] and 0.976 µM in experiment [3].

`NC1=N[C@](CF)(c2cc(NC(=O)c3ccc(Cl)cn3)cc(F)c2F)[C@H]2C[C@H]2O1` [Example 142, N-(3-(((1R,S),(5S,R),(6R,S))-3-amino-5-(fluoromethyl)-2-oxa-4-azabicyclo[4.1.0]hept-3-en-5-yl)-4,5-difluorophenyl)-5-chloropicolinamide] gave an IC50 in experiment [2] of 0.0263 µM.

As for `Cc1cc(C(F)F)cnc1C(=O)Nc1ccc(F)c([C@@]2(CF)N=C(N)O[C@@H]3C[C@@H]32)c1` [Example 201, N-(3-((1R,5S,6R)-3-amino-5-(fluoromethyl)-2-oxa-4-azabicyclo[4.1.0]hept-3-en-5-yl)-4-fluorophenyl)-5-(difluoromethyl)-3-methylpicolinamide], the concentration for half-maximal inhibition (IC50) in experiment [2] was 0.0179 µM; in experiment [3], 0.0638 µM.

For the compound `Cc1cc(OC(F)F)cnc1C(=O)Nc1ccc(Cl)c(C2(C(F)F)N=C(N)O[C@@H]3C[C@@H]32)c1` (stereo partly shown) [Example 209], the half-inhibitory concentration (IC50) in experiment [2] worked out at 0.0765 µM; in experiment [3] it was 0.0908 µM.

Regarding `COc1cc(Cl)cnc1C(=O)Nc1ccc(Cl)c([C@@]2(CF)N=C(N)O[C@@H]3C[C@@H]32)c1` [Example 297, N-(3-((1R,5S,6R)-3-amino-5-(fluoromethyl)-2-oxa-4-azabicyclo[4.1.0]hept-3-en-5-yl)-4-chlorophenyl)-5-chloro-3-methoxypicolinamide], the 50% inhibitory concentration (IC50) in experiment [2] was found to be 0.0074 µM; in experiment [3] it was 0.183 µM.

In the case of `COc1cnc(C(=O)Nc2ccc(F)c([C@@]3(C)N=C(N)O[C@@H]4C[C@@H]43)n2)cn1` [Example 322, N-(6-((1R,5S,6R)-3-amino-5-methyl-2-oxa-4-azabicyclo[4.1.0]hept-3-en-5-yl)-5-fluoropyridin-2-yl)-5-methoxypyrazine-2-carboxamide], the IC50 in experiment [2] came out at 0.184 µM; in experiment [3], 1.99 µM.

Turning to `N#Cc1cnc2c(c1)CC[C@H]2Nc1ccc(F)c([C@@]2(C(F)F)N=C(N)O[C@@H]3C[C@@H]32)c1` [Example 401, (R)-7-((3-((1R,5S,6R)-3-amino-5-(difluoromethyl)-2-oxa-4-azabicyclo[4.1.0]hept-3-en-5-yl)-4-fluorophenyl)amino)-6,7-dihydro-5H-cyclopenta[b]pyridine-3-carbonitrile], the IC50 stood at 0.0575 µM in experiment [2] and 0.108 µM in experiment [3].

Regarding `CC#Cc1cncc(-c2ccc(F)c([C@@]3(CF)N=C(N)O[C@@H]4C[C@@H]43)c2)c1` [Example 431, (1(S,R),5(R,S),6(S,R))-5-(2-fluoro-5-(5-(prop-1-yn-1-yl)pyridin-3-yl)phenyl)-5-(fluoromethyl)-2-oxa-4-azabicyclo[4.1.0]hept-3-en-3-amine], the IC50 in experiment [1] worked out at 91.6 µM; in experiment [3], 4.69 µM.

On to `CC#Cc1cncc(-c2cc([C@]3(CF)N=C(N)O[C@H]4C[C@H]43)c(F)cc2CO)c1` [Example 432, (4-(((1S,R),(5R,S),(6S,R))-3-amino-5-(fluoromethyl)-2-oxa-4-azabicyclo[4.1.0]hept-3-en-5-yl)-5-fluoro-2-(5-(prop-1-yn-1-yl)pyridin-3-yl)phenyl)methanol], for which the IC50 was 178 µM in experiment [1] and 33.1 µM in experiment [3].

As to `NC1=N[C@@](c2cc(-n3cc(C#CC4CC4)cn3)ccc2F)(C(F)F)[C@H]2C[C@H]2O1` [Example 435], the 50% inhibitory concentration (IC50) stood at 316 µM in experiment [1] and 8.62 µM in experiment [3].

On to `CNc1cnc(C(=O)Nc2ccc(F)c([C@@]3(C(F)F)N=C(N)O[C@@H]4C[C@@H]43)c2)nc1` [Example 439, N-(3-((1R,5S,6R)-3-amino-5-(difluoromethyl)-2-oxa-4-azabicyclo[4.1.0]hept-3-en-5-yl)-4-fluorophenyl)-5-(methylamino)pyrimidine-2-carboxamide dihydrochloride], for which the IC50 came out at 490 µM in experiment [1] and 0.473 µM in experiment [3].

Consider “(R)-8-((3-((1R,5S,6R)-3-amino-5-(difluoromethyl)-2-oxa-4-azabicyclo[4.1.0]hept-3-en-5-yl)-4-fluorophenyl)amino)-5,6,7,8-tetrahydroquinoline-3-carbonitrile and (S)-8-((3-((1R,5S,6R)-3-amino-5-(difluoromethyl)-2-oxa-4-azabicyclo[4.1.0]hept-3-en-5-yl)-4-fluorophenyl)amino)-5,6,7,8-tetrahydroquinoline-3-carbonitrile [Example 403]”, for which the IC50 was 469 µM in experiment [1] and 2.85 µM in experiment [3].

“N-(3-((1R,5S,6R)-3- amino-5- (difluoromethyl)-2-oxa- 4-azabicyclo[4.1.0]hept- 3-en-5-yl)-4-fluoro-5- methylphenyl)-4-chloro- 2-(fluoromethyl) benzamide [Example 444]”: the figures for the 50% inhibitory concentration (IC50) in experiment [1] and in experiment [3] were 171 µM and 0.0105 µM, respectively.
